Results published in ChEMBL document CHEMBL1140598, “A review of anti-infective and anti-inflammatory chalcones” (Eur J Med Chem, 2007).
≈ marks a conversion by molar mass, not a printed value.

Tests used:
[1] = Inhibition of Leishmania major NADH dehydrogenase
[2] = Inhibition of Leishmania major NADH-dehydrogenase in human PBMCs crude mitochondria after 60 mins
[3] = tested on: Mycobacterium marinum; test: Antibacterial activity against Mycobacterium marinum; format: functional
[4] = tested on: Plasmodium falciparum; test: Antiplasmodial activity against chloroquine-sensitive Plasmodium falciparum D6; format: functional, organism-based
[5] = tested on: Lactococcus lactis; test: Antibacterial activity against Streptococcus lactis; format: functional
[6] = tested on: Staphylococcus aureus; test: Antibacterial activity against Staphylococcus aureus; format: functional, organism-based
[7] = Inhibition of Leishmania donovani fumarate reductase in after 60 mins
[8] = tested on: Heyndrickxia coagulans; test: Antibacterial activity against Bacillus coagulans; format: functional
[9] = tested on: Staphylococcus aureus; test: Antibacterial activity against methicillin-resistant Staphylococcus aureus OM505; format: functional
[10] = tested on: Staphylococcus aureus; test: Antibacterial activity against methicillin-sensitive Staphylococcus aureus FDA209P; format: functional
[11] = Inhibition of Leishmania major succinate dehydrogenase in human PBMCs crude mitochondria after 60 mins
[12] = tested on: Staphylococcus aureus; test: Antibacterial activity against methicillin-resistant Staphylococcus aureus K3; format: functional
[13] = tested on: Bacillus subtilis; test: Antibacterial activity against Bacillus subtilis; format: functional
[14] = Inhibition of Leishmania major succinate-cytochrome c reductase
[15] = tested on: Leishmania donovani; test: Inhibition of Leishmania donovani amastigotes in human monocyte-derived macrophages; format: functional, organism-based
[16] = tested on: Mycobacterium kansasii; test: Antibacterial activity against Mycobacterium kansasii; format: functional
[17] = tested on: Staphylococcus aureus; test: Antibacterial activity against methicillin-resistant Staphylococcus aureus ST28; format: functional
[18] = Inhibition of Leishmania major NADH-cytochrome c reductase
[19] = tested on: Lactobacillus acidophilus; test: Antibacterial activity against Lactobacillus acidophilus; format: functional
[20] = tested on: Streptococcus mutans; test: Antibacterial activity against […]; format: functional
[21] = tested on: Enterococcus faecalis; test: Antibacterial activity against Enterococcus faecalis; format: functional
[22] = tested on: Staphylococcus aureus; test: Antibacterial activity against methicillin-sensitive Staphylococcus aureus Smith; format: functional
[23] = tested on: Lactiplantibacillus plantarum; test: Antibacterial activity against Lactobacillus plantarum; format: functional
[24] = tested on: Clostridium sporogenes; test: Antibacterial activity against Clostridium sporogenes; format: functional
[25] = tested on: Leishmania major; test: Growth inhibition of Leishmania major promastigotes assessed as [3H]thymidine incorporation; format: functional, organism-based
[26] = tested on: Enterococcus faecium; test: Antibacterial activity against Enterococcus faecium; format: functional
[27] = tested on: Plasmodium falciparum; test: Antiplasmodial activity against chloroquine-resistant Plasmodium falciparum W2; format: functional, organism-based
[28] = tested on: Helicobacter pylori; test: Growth inhibition of Helicobacter […]; format: functional
[29] = tested on: Staphylococcus aureus; test: Antibacterial activity against methicillin-resistant Staphylococcus aureus OM481; format: functional
[30] = tested on: Geobacillus stearothermophilus; test: Antibacterial activity against Bacillus stearothermophilus; format: functional
[31] = Inhibition of Leishmania major succinate dehydrogenase
[32] = tested on: Bacillus cereus; test: Antibacterial activity against Bacillus cereus; format: functional
[33] = tested on: Mycobacterium tuberculosis; test: Antibacterial activity against Mycobacterium tuberculosis; format: functional
[34] = tested on: Mycobacterium xenopi; test: Antibacterial activity against Mycobacterium xenopi; format: functional
[35] = tested on: Plasmodium falciparum; test: Antimalarial activity against chloroquine-resistant Plasmodium falciparum K1 by [3H]hypoxanthine incorporation; format: functional, organism-based
[36] = target: Superoxide dismutase [Fe] (Plasmodium falciparum) (UniProt Q9TW89); test: Inhibition of Plasmodium falciparum recombinant superoxide dismutase at 50 uM
Superoxide dismutase [Fe] (Plasmodium falciparum), sequence (Q9TW89 whole entry): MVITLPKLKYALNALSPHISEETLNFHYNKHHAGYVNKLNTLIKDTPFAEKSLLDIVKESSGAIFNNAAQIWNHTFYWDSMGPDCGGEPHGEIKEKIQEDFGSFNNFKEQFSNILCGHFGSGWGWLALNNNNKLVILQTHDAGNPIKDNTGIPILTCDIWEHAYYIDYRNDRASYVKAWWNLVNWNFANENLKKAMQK

[37] = tested on: Plasmodium falciparum; test: Antimalarial activity against chloroquine-sensitive Plasmodium falciparum HB3; format: functional, organism-based
[38] = tested on: Plasmodium falciparum; test: Antimalarial activity against chloroquine-resistant Plasmodium falciparum Dd2; format: functional, organism-based
[39] = target: Protease (Human immunodeficiency virus 1) (UniProt Q9YQ12); test: Inhibition of HIV1 protease at 50 ug/mL
Protease (Human immunodeficiency virus 1), sequence (Q9YQ12 as listed by the source): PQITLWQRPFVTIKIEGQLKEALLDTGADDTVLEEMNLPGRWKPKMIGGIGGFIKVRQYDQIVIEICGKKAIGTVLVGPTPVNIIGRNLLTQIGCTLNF

[40] = tested on: Mycobacterium tuberculosis; test: Antibacterial activity against Mycobacterium tuberculosis H37Rv at 12.5 ug/mL; format: functional
[41] = tested on: Fusarium oxysporum; test: Antifungal activity against Fusarium oxysporum; format: functional
[42] = tested on: Rhizoctonia solani; test: Antifungal activity against Rhizoctonia solani; format: functional
[43] = tested on: Colletotrichum truncatum; test: Antifungal activity against Colletotrichum capsici; format: functional
[44] = tested on: Candida albicans; test: Antifungal activity against Candida albicans; format: functional, organism-based
[45] = tested on: Cryptococcus neoformans; test: Antifungal activity against Cryptococcus neoformans; format: functional, organism-based
[46] = tested on: RAW; test: Inhibition of nitric oxide production in LPS-stimulated mouse RAW 264.7 cells at 10 uM; format: functional
[47] = tested on: RAW; test: Inhibition of prostaglandin E2 production in LPS-stimulated mouse RAW 264.7 cells at 10 uM; format: functional
[48] = target: Protease (Human immunodeficiency virus 1, UniProt Q9YQ12); test: Inhibition of HIV1 protease
Protease, sequence (Q9YQ12 whole entry): as the sequence (Q9YQ12 as listed by the source) above

[49] = Inhibition of Leishmania donovani solubilized fumarate reductase
[50] = tested on: Diaporthe longicolla; test: Antifungal activity against Phomopsis longicolla Hobbs CE117; format: functional
[51] = tested on: Colletotrichum truncatum; test: Antifungal activity against Colletotrichum truncatum CE175; format: functional, Glomerella truncata
[52] = tested on: Trichophyton rubrum; test: Antifungal activity against Trichophyton rubrum; format: functional
[53] = tested on: Microsporum; test: Antifungal activity against Microsporum gypseum; format: functional
[54] = tested on: Epidermophyton floccosum; test: Antifungal activity against Epidermophyton floccosum; format: functional
[55] = tested on: Microsporum canis; test: Antifungal activity against Microsporum canis; format: functional
[56] = tested on: Trichophyton benhamiae; test: Antifungal activity against Trichophyton mentagrophytes; format: functional, Arthroderma benhamiae
[57] = tested on: Staphylococcus aureus; test: Antibacterial activity against methicillin-resistant Staphylococcus aureus; format: functional, organism-based
[58] = tested on: Escherichia coli; test: Antibacterial activity against Escherichia coli; format: functional
[59] = tested on: Leishmania braziliensis; test: Growth inhibition of Leishmania braziliensis promastigotes; format: functional, organism-based
[60] = tested on: Cladosporium cladosporioides; test: Fungicidal activity against Cladosporium cladosporioides; format: functional
[61] = tested on: Human immunodeficiency virus; test: Antiviral activity against HIV; format: functional, organism-based; conditions: Human immunodeficiency virus 1
[62] = tested on: Plasmodium falciparum; test: Antiplasmodial activity against chloroquine-sensitive Plasmodium falciparum 3D7 by [3H]hypoxanthine incorporation; format: functional, organism-based
[63] = tested on: Plasmodium falciparum; test: Antiplasmodial activity against chloroquine-sensitive Plasmodium falciparum Dd2 by [3H]hypoxanthine incorporation; format: functional, organism-based
[64] = tested on: Leishmania amazonensis; test: Antileishmanial activity against Leishmania amazonensis intracellular amastigotes; format: functional; conditions: read-out: ED50 (the source's name)
[65] = tested on: Leishmania amazonensis; test: Antileishmanial activity against Leishmania amazonensis promastigotes; format: functional; conditions: read-out: ED50 (the source's name)
[66] = tested on: Plasmodium falciparum; test: Antimalarial activity against Plasmodium falciparum; format: functional, organism-based

## C=CC(C)(C)c1cc(/C=C/C(=O)c2ccc(O)cc2)c(OC)cc1O [LICOAGROCHACONE A]
[1]
  IC50: 460 µM
[2]
  IC50: 1400 µM
[3]
  MIC: ≤ 20 µg/mL
[4]
  IC50: 10.3 µM
[5]
  MIC: 8 µg/mL (≈ 23.6 µM)
[6]
  MIC: 3 µg/mL
[7]
  IC50: 14 µM
[8]
  MIC: 2 µg/mL (≈ 5.91 µM)
[9]
  MIC: 16 µg/mL (≈ 47.3 µM)
[10]
  MIC: 16 µg/mL (≈ 47.3 µM)
[11]
  IC50: 1400 µM
[12]
  MIC: 6.25 µg/mL (≈ 18.5 µM)
[13]
  MIC: 2 µg/mL (≈ 5.91 µM)
[14]
  IC50: 1520 µM
[15]
  IC50: 0.65 µM
[16]
  MIC: ≤ 20 µg/mL
[17]
  MIC: 6.25 µg/mL (≈ 18.5 µM)
[18]
  IC50: 1980 µM
[19]
  MIC: 5 µg/mL (≈ 14.8 µM)
[20]
  MIC: 5 µg/mL (≈ 14.8 µM)
[21]
  MIC: 6 µg/mL (≈ 17.7 µM)
[22]
  MIC: 3.13 µg/mL (≈ 9.25 µM)
[23]
  MIC: 5 µg/mL (≈ 14.8 µM)
[24]
  MIC: 8 µg/mL (≈ 23.6 µM)
[25]
  IC50: 4 µM
[26]
  MIC: 6 µg/mL
[27]
  IC50: 10.3 µM
[28]
  MIC: 25 µg/mL (≈ 73.9 µM)
[29]
  MIC: 16 µg/mL (≈ 47.3 µM)
[30]
  MIC: 2 µg/mL (≈ 5.91 µM)
[31]
  IC50: 593 µM
[32]
  MIC: 3 µg/mL (≈ 8.87 µM)
[33]
  MIC: ≤ 20 µg/mL
[34]
  MIC: ≤ 20 µg/mL

## O=C(/C=C/c1ccc(Cl)c(Cl)c1)c1ccc(O)cc1
[35]
  IC50: 20 µM

## CC(C)(C)c1ccc(C(=O)/C=C/c2ccc(Br)cc2)cc1
[36]
  inhibition: 83%
[37]
  IC50: 37 µM
[38]
  IC50: 27 µM

## O=C(/C=C/c1ccc(O)c(O)c1)c1ccc(O)cc1O
[39]
  inhibition: 50%

## COc1ccc(/C=C/C(=O)c2ccccc2O)c(OC)c1
[15]
  IC50: 0.65 µM
[25]
  IC50: 4 µM

## O=C(/C=C/c1cccc(Cl)c1)c1ccccc1O
[40]
  inhibition at 12.5 µg/mL: 90%

## O=C(/C(Br)=C(\Br)c1cccc([N+](=O)[O-])c1)c1cccc([N+](=O)[O-])c1
[41]
  MIC: 6.25 µg/mL (≈ 13.7 µM)
[42]
  MIC: 6.25 µg/mL (≈ 13.7 µM)
[43]
  MIC: 6.25 µg/mL (≈ 13.7 µM)

## C=C(C)C(O)Cc1c(O)ccc(C(=O)/C=C/c2ccc(O)cc2)c1O (centres undefined)
[44]
  IC50: 15 µg/mL (≈ 44.1 µM)
[45]
  IC50: 7 µg/mL (≈ 20.6 µM)

## COc1cc(OC)c(/C=C/C(=O)c2ccccc2C(F)(F)F)c(OC)c1
[46]
  inhibition at 10 µM: 76.3%
[47]
  inhibition at 10 µM: 76.3%

## COc1ccc(C(=O)/C=C/c2ccc(C(F)(F)F)cc2)c(OC)c1OC
[35]
  IC50: 6.5 µM

## COc1ccc(C(=O)/C=C/c2ccc(C(F)(F)F)cc2)c(OC)c1
[35]
  IC50: 6.5 µM

## COc1cc(O)cc(O)c1C(=O)/C=C/c1ccccc1 [CARDAMOMIN]
[48]
  IC50: 115 µM
[39]
  inhibition: 75.1%

## C=CCOc1ccc(C(=O)/C=C/c2ccc(OC)cc2OC)cc1
[49]
  IC50: 153 µM
[15]
  IC50: 0.65 µM
[25]
  IC50: 4 µM

## O=C(CCc1ccc(O)cc1)c1c(O)cc(O)cc1O
[39]
  inhibition: 27%

## CC(C)=CCc1cc(/C=C/C(=O)c2ccc(O)cc2O)cc(O)c1O [5'-PRENYLBUTEIN]
[4]
  IC50: 10.3 µM
[27]
  IC50: 10.3 µM

## O=C(/C=C/c1cccc(I)c1)c1ccccc1O
[40]
  inhibition at 12.5 µg/mL: 90%

## O=C(/C=C/c1ccccc1)c1ccc(O)cc1O [2',4'-DIHYDROXYCHALCONE]
[50]
  MIC: 6.25 µg/mL (≈ 26 µM)
[51]
  MIC: 6.25 µg/mL (≈ 26 µM)

## COc1cccc(/C=C/C(=O)c2ccc(Br)cc2)c1
[52]
  MIC: 3 µg/mL (≈ 9.46 µM)
[53]
  MIC: 1.5 µg/mL (≈ 4.73 µM)
[54]
  MIC: 0.5 µg/mL (≈ 1.58 µM)
[55]
  MIC: 25 µg/mL (≈ 78.8 µM)
[56]
  MIC: 3 µg/mL (≈ 9.46 µM)

## Cc1cc(C)cc(-c2ccc(N3CCNCC3)c(/C=C/C(=O)c3cccc(NCCN(C)C)c3)c2)c1
[6]
  MIC: 2 µM
[57]
  MIC: 2 µM (≈ 0.965 µg/mL)
[26]
  MIC: 5 µM
[58]
  MIC: 5 µM (≈ 2.41 µg/mL)

## O=C(/C=C/c1ccccc1)c1ccccc1 [CHALCONE]
[59]
  IC50: 13.7 µM

## CC1(C)CCc2c(O)ccc(C(=O)/C=C/c3ccc(O)cc3)c2O1
[60]
  MIC: 2 µg

## COc1c(C)c(O)c(C(=O)/C=C(\O)c2ccccc2)c(O)c1C=O
[61]
  EC50: 0.022 µg/mL (≈ 0.067 µM)

## C=CC(C)(C)c1cc(/C=C/C(=O)c2ccc(O)cc2)c(OC)cc1Cl
[6]
  MIC: 10 µg/mL

## COc1ccc(/C=C/C(=O)c2ccc(O)cc2)c(OC)c1
[15]
  IC50: 0.65 µM
[25]
  IC50: 4 µM

## CCCCOc1ccc(C(=O)/C=C/c2ccc(OC)cc2OC)cc1
[49]
  IC50: 118 µM
[62]
  IC50: 8.9 µM
[63]
  IC50: 14.8 µM

## COc1cc(O)c(C(=O)/C=C/c2ccccc2)c(O)c1
[64]
  EC50: 24 µg/mL (≈ 88.8 µM)
[65]
  EC50: 0.5 µg/mL (≈ 1.85 µM)

## O=C(Nc1ccc(Cl)cc1)Nc1ccc(C(=O)/C=C/c2ccc(F)cc2F)cc1
[66]
  IC50: 1.76 µM

## CCc1ccc(/C=C/C(=O)c2ccc(OC)cc2OC)cc1
[35]
  IC50: 6.5 µM
